Source: EP4786466A1, “QUINAZOLINE DERIVATIVE, SALT THEREOF, AND PHARMACEUTICAL COMPOSITION COMPRISING SAME AS ACTIVE INGREDIENT” (Korea Research Institute of Chemical Technology, priority 2023, dated 2025)

Legend:
[1] = target: T1, Recombinant GST-TAG-MASTL (Homo sapiens, UniProt Q96GX5); experiment: HTRF-based kinase assay (HTRF KinEASE assay kit); format: biochemical; details: for activity at 1 µM: compound 1 µM, read-out: MASTL activity (%) HTRF (1 µM); for IC50: HTRF, read-out: IC50(nM) MASTL activity
T1 construct: GST; purchased Thermo Fisher Scientific
T1 sequence (Q96GX5 1-879): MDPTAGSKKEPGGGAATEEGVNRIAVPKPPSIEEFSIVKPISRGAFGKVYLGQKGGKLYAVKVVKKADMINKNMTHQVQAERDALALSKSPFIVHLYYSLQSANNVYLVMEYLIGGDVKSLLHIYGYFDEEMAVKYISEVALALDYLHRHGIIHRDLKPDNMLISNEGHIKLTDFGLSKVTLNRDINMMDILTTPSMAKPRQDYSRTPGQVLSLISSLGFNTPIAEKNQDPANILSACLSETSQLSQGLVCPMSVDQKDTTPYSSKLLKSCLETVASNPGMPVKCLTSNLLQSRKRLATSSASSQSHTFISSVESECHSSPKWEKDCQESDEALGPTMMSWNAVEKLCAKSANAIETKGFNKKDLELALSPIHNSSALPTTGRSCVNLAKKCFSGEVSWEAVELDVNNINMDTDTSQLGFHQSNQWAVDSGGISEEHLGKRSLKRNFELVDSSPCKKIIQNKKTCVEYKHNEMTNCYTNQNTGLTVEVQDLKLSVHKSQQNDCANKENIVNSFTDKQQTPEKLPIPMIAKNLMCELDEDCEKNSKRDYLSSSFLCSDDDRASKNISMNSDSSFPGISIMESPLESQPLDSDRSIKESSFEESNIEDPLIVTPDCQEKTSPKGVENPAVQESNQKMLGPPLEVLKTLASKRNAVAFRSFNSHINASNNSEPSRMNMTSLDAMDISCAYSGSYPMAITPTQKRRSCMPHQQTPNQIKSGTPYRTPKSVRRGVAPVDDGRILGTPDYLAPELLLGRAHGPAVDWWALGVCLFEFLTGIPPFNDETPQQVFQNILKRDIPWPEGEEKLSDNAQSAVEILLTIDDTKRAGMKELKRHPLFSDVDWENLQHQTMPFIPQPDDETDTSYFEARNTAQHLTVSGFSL
Excerpt: Recombinant GST-TAG-MASTL (Thermo Fisher Scientific, MA, USA) was used for HTRF-based kinase assays. The HTRF KinEASE assay kit (CisBio, MA, USA) was used according to the manufacturer's instructions.

[2] = tested on: pENSA; experiment: pENSA level by immunofluorescence (described method: in vitro kinase analysis with GST-tag-MASTL and His-tag-ENSA); format: cell-based; details: compound 1 µM
In short: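 In vitro kinase reaction using recombinant GST-tagged MASTL with His-tagged ENSA as substrate; phosphorylated ENSA (pENSA) serves as read-out of MASTL activity. Cell lines named: MCF7 breast cancer and MCF10A.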

[3] = in vitro; details: human, mcf10a cells
Experimental: (§1) MCF7 breast cancer cell lines and MCF10A normal breast cancer cell lines were treated with serial dilutions of the compounds of the present invention ranging from 1 µM to 15.63 nM for 72 hours. Cell viability was measured by the WST-8 assay (Cyto XTM cell viability assay kit; LPS solution, Daejeon, Korea) according to the manufacturer's instructions.

[4] = tested on: MCF7 breast cancer cell lines; experiment: Cell viability analysis, WST-8 assay, MCF7; details: Homo sapiens, MCF7, 72 h, read-out: Cell viability (%) WST-8, MCF7 (1 µM), compound 1 µM, 72 hours
Experimental: as §1

**Q.** What does the source list for `CC(C)(C)OC(=O)N1CCC2(CC1)CCN(c1nc(Nc3cc(C4CC4)[nH]n3)c3ccccc3n1)CC2` [compound 6b, sdqs-butyl 9-(4-((5-cyclopropyl-1G-pyrazol-3-yl)amino)quinazolin-2-yl)-3,9-diazaspiro[5.5]undecane-3-carboxylate]?
**A.** activity at 1 µM [1]: 43.5%; pENSA (%) Immunofluor ecense (1 µM) [2]: 98.2%; viability at 1 µM [3]: 122%; viability at 1 µM [4]: 116%

**Q.** What does the source list for `CC(C)(C)OC(=O)N1CC2(CCN(c3nc(Nc4cc(C5CC5)[nH]n4)c4ccccc4n3)CC2)C1` [compound 6c, sdqs-butyl 7-(4-((5-cyclopropyl-1G-pyrazol-3-yl)amino)quinazolin-2-yl)-2,7-diazaspiro[3.5]nonane-2-carboxylate]?
**A.** IC50 [1]: 796 nM; activity at 1 µM [1]: 32.9%; pENSA (%) Immunofluor ecense (1 µM) [2]: 90.5%; viability at 1 µM [3]: 129%; viability at 1 µM [4]: 109%

**Q.** With `C1=C(c2ccccc2)CCN(c2nc(Nc3cc(C4CC4)[nH]n3)c3ccccc3n2)C1` [compound 6e, M-(5-cyclopropyl-1G-pyrazol-3-yl)-2-(4-phenyl-3,6-dihydropyridin-1(2G)-yl)quinazolin-4-amine] as the compound, how does the IC50 [1] read?
**A.** Its IC50 is 569 nM.

**Q.** And the activity at 1 µM [1]?
**A.** The activity at 1 µM was 43.3%.

**Q.** What about the “pENSA (%) Immunofluor ecense (1 µM)” value [2] of the same compound?
**A.** The value was 97%.

**Q.** And the viability at 1 µM [3]?
**A.** The viability at 1 µM was 91.4%.

**Q.** What about the viability at 1 µM [4] of the same compound?
**A.** Its viability at 1 µM is 90.9%.

**Q.** What does the source list for `FC(F)(F)c1ccc(C2=CCN(c3nc(Nc4cc(C5CC5)[nH]n4)c4ccccc4n3)CC2)cc1` [compound 6f, M-(5-cyclopropyl-1G-pyrazol-3-yl)-2-(4-(4-(trifluoromethyl)phenyl)-3,6-dihydropyridin-1(2G)-yl)quinazolin-4-amine]?
**A.** activity at 1 µM [1]: 55.8%; pENSA (%) Immunofluor ecense (1 µM) [2]: 110%; viability at 1 µM [3]: 102%; viability at 1 µM [4]: 91.9%

**Q.** Which results are given for `FC(F)(F)c1cccc(C2=CCN(c3nc(Nc4cc(C5CC5)[nH]n4)c4ccccc4n3)CC2)c1` [compound 6g, M-(5-cyclopropyl-1G-pyrazol-3-yl)-2-(4-(3-(trifluoromethyl)phenyl)-3,6-dihydropyridin-1(2G)-yl)quinazolin-4-amine]?
**A.** activity at 1 µM [1]: 41.4%; pENSA (%) Immunofluor ecense (1 µM) [2]: 113%; viability at 1 µM [3]: 104%; viability at 1 µM [4]: 95%

**Q.** Which results are given for `C1=C(Cc2ccccc2)CCN(c2nc(Nc3cc(C4CC4)[nH]n3)c3ccccc3n2)C1` [compound 6h, 2-(4-benzyl-3,6-dihydropyridin-1(2G)-yl)-M-(5-cyclopropyl-1G-pyrazol-3-yl)quinazolin-4-amine]?
**A.** IC50 [1]: 995 nM; activity at 1 µM [1]: 46%; pENSA (%) Immunofluor ecense (1 µM) [2]: 93%; viability at 1 µM [3]: 59.8%; viability at 1 µM [4]: 89.7%

**Q.** For `C1=C(c2cccc3ccccc23)CCN(c2nc(Nc3cc(C4CC4)[nH]n3)c3ccccc3n2)C1` [compound 6i, M-(5-cyclopropyl-1G-pyrazol-3-yl)-2-(4-(naphthalen-1-yl)-3,6-dihydropyridin-1(2G)-yl)quinazolin-4-amine], which activity at 1 µM [1] is on record?
**A.** Its activity at 1 µM is 74.6%.

**Q.** And the “pENSA (%) Immunofluor ecense (1 µM)” value [2]?
**A.** Its value is 97.2%.

**Q.** And the viability at 1 µM [3]?
**A.** Its viability at 1 µM is 122%.

**Q.** And the viability at 1 µM [4]?
**A.** The viability at 1 µM was 113%.

**Q.** Which results are given for `Fc1ccccc1C1=CCN(c2nc(Nc3cc(C4CC4)[nH]n3)c3ccccc3n2)CC1` [compound 6k, M-(5-cyclopropyl-1G-pyrazol-3-yl)-2-(4-(2-fluorophenyl)-3,6-dihydropyridin-1(2G)-yl)quinazolin-4-amine]?
**A.** IC50 [1]: 406 nM; activity at 1 µM [1]: 40.6%; pENSA (%) Immunofluor ecense (1 µM) [2]: 82%; viability at 1 µM [3]: 90.8%; viability at 1 µM [4]: 91%

**Q.** For `CCc1ccccc1C1=CCN(c2nc(Nc3cc(C4CC4)[nH]n3)c3ccccc3n2)CC1` [compound 6m, M-(5-cyclopropyl-1G-pyrazol-3-yl)-2-(4-(2-ethylphenyl)-3,6-dihydropyridin-1(2G)-yl)quinazolin-4-amine], which activity at 1 µM [1] is on record?
**A.** The activity at 1 µM was 51.8%.

**Q.** What about the “pENSA (%) Immunofluor ecense (1 µM)” value [2] of the same compound?
**A.** The value was 97.1%.

**Q.** What about the viability at 1 µM [3] of the same compound?
**A.** The viability at 1 µM was 115%.

**Q.** And the viability at 1 µM [4]?
**A.** The viability at 1 µM was 65.7%.
